Source: the Deep4Chem optical property database
Where “and” joins values, the source holds several entries; their conditions need not be identical. Identical values can stand only once. Blank lines part the entries; values can stand above or below the compound they belong to.

Assay: photoluminescence quantum yield (fraction); solvent given as SMILES

SMILES: c1ccc(-c2nc(-c3ccccc3)nc(-c3ccc(-n4c5ccccc5c5c4c4ccccc4n5-c4ccccc4)cc3)n2)cc1
photoluminescence quantum yield (in Cc1ccccc1): 0.445

SMILES: O=C(c1ccncc1)c1ccc(-n2c3ccccc3c3ccccc32)cc1
photoluminescence quantum yield (in Cc1ccccc1): 0.012
photoluminescence quantum yield (in c1cc(-c2cccc(-n3c4ccccc4c4ccccc43)c2)cc(-n2c3ccccc3c3ccccc32)c1): 0.38

SMILES: CC(C)(C)c1ccc(-c2c3ccccc3c3n2[B-](F)(F)[N+]2=Cc4c5ccccc5c(-c5ccc(C(C)(C)C)cc5)n4[B-](F)(F)[N+]2=C3)cc1
photoluminescence quantum yield (in CC#N): 0.26
photoluminescence quantum yield (in CCCCCC): 0.34
photoluminescence quantum yield (in CN(C)C=O): 0.28
photoluminescence quantum yield (in Cc1ccccc1): 0.34
photoluminescence quantum yield (in ClCCl): 0.34

SMILES: CN1/C(=C/C=C/C2=[N+](CCCCCC(=O)O)c3ccc(S(=O)(=O)[O-])cc3C2(C)C)C(C)(C)c2cc(S(=O)(=O)[O-])ccc21
photoluminescence quantum yield (in O): 0.04

SMILES: CC1=CC(C)=[N+]2C1=C(c1ccc(N(C)C)cc1)c1c(C)cc(C)n1[B-]2(F)F
photoluminescence quantum yield (in C1CCOC1): 0.014
photoluminescence quantum yield (in CC#N): 0.005
photoluminescence quantum yield (in CC(=O)C(C)(C)C): 0.015
photoluminescence quantum yield (in CC(C)=O): 0.009
photoluminescence quantum yield (in CCCCCC): 0.441
photoluminescence quantum yield (in CCOC(C)=O): 0.011

SMILES: CC1(C)C(/C=C/C2=C(Cl)C(=C/C=C3/N(Cc4ccccc4)c4ccccc4C3(C)C)/CCC2)=[N+](Cc2ccccc2)c2ccccc21
photoluminescence quantum yield (in CCO): 0.117

SMILES: CCC1=C(C)C2=C(C)c3c(I)c(I)cn3[B-](F)(F)[N+]2=C1C
photoluminescence quantum yield (in C1CCCCC1): 0.05
photoluminescence quantum yield (in CC(C)=O): 0.024
photoluminescence quantum yield (in CCO): 0.021
photoluminescence quantum yield (in CCOC(C)=O): 0.031
photoluminescence quantum yield (in CO): 0.02
photoluminescence quantum yield (in OCC(F)(F)F): 0.019

SMILES: CN(C)c1ccc(/C=C/c2ncc3ccccc3n2)cc1
photoluminescence quantum yield (in CC#N): 0.06
photoluminescence quantum yield (in ClCCl): 0.21

SMILES: Cc1c(C(=O)c2ccccc2)c2ccc3cccc4c5cccc6ccc1c(c65)c2c34
photoluminescence quantum yield (in ClCCl): 0.02

SMILES: Nc1cccnc1
photoluminescence quantum yield (in C1CCCCC1): 0.02
photoluminescence quantum yield (in CC#N): 0.05
photoluminescence quantum yield (in CCO): 0.14
photoluminescence quantum yield (in CCOCC): 0.03
photoluminescence quantum yield (in O): 0.16

SMILES: [O-][n+]1c(/C=C/c2ccccc2)nc(N2CCOCC2)c2c1CCCC2
photoluminescence quantum yield (in ClCCl): 0.21

SMILES: CC(C)(C)c1ccc2c(c1)c1cc(C(C)(C)C)ccc1n2-c1cccc(-c2nc(-c3cccc(P(=O)(c4ccccc4)c4ccccc4)c3)nc(-c3cccc(P(=O)(c4ccccc4)c4ccccc4)c3)n2)c1
photoluminescence quantum yield (in O=P(c1ccccc1)(c1ccccc1)c1ccccc1Oc1ccccc1P(=O)(c1ccccc1)c1ccccc1): 0.72

SMILES: CCCCCCCCC1(CCCCCCCC)c2cc(C=O)ccc2-c2ccc(/C=C/c3ccc(N(c4ccccc4)c4ccccc4)cc3)cc21
photoluminescence quantum yield (in C1CCOC1): 0.94
photoluminescence quantum yield (in C1COCCO1): 0.67
photoluminescence quantum yield (in CC#N): 0.24
photoluminescence quantum yield (in CC(C)=O): 0.33
photoluminescence quantum yield (in CCCCCC): 0.6
photoluminescence quantum yield (in CCOC(C)=O): 0.6
photoluminescence quantum yield (in CN(C)C=O): 0.12
photoluminescence quantum yield (in CS(C)=O): 0.2
photoluminescence quantum yield (in Cc1ccccc1): 0.58
photoluminescence quantum yield (in ClC(Cl)Cl): 0.53
photoluminescence quantum yield (in ClCCl): 0.7

SMILES: COc1ccc(-c2nc(-c3ccccc3)c(-c3ccccc3)[nH]2)cc1
photoluminescence quantum yield (in CO): 0.18

SMILES: Brc1ccc(/C=C/c2cnc3ccccc3n2)cc1
photoluminescence quantum yield (in ClCCl): 0.02

SMILES: CCCCCCCCCCn1nnc(-c2ccc(C#Cc3ccc(C#Cc4ccc(-c5nnn(CCCCCCCCCC)n5)cc4)c4nc5c6ccccc6c6ccccc6c5nc34)cc2)n1
photoluminescence quantum yield (in C1CCOC1): 0.05
photoluminescence quantum yield (in Cc1ccccc1): 0.07
photoluminescence quantum yield (in ClCCl): 0.04

SMILES: N#C/C(=C\c1ccc(C#N)cc1)c1nc(-c2ccc(Cl)cc2)cs1
photoluminescence quantum yield (in CC#N): 0.18

SMILES: CCC1=C(C2=C(C3=C(CC)S(=O)(=O)c4cc(-c5ccc(CO)cc5)ccc43)C(F)(F)C(F)(F)C2(F)F)c2ccc(-c3ccc(CO)cc3)cc2S1(=O)=O
photoluminescence quantum yield (in C1COCCO1): 0

SMILES: CC(=O)c1c2c(cc3cc(N(C)C)ccc13)CCC2
photoluminescence quantum yield (in C1CCCCC1): 0.08
photoluminescence quantum yield (in C1CCOC1): 0.34
photoluminescence quantum yield (in C1COCCO1): 0.38
photoluminescence quantum yield (in CC#N): 0.18
photoluminescence quantum yield (in CCO): 0.03
photoluminescence quantum yield (in CS(C)=O): 0.37
photoluminescence quantum yield (in Cc1ccccc1): 0.25
photoluminescence quantum yield (in ClC(Cl)Cl): 0.41
photoluminescence quantum yield (in ClCCl): 0.82

SMILES: Cc1cc(-c2ccc3ccccc3c2)cc(C)[o+]1
photoluminescence quantum yield (in ClCCl): 0.64

SMILES: CCn1c2cc(C(C)(C)C)ccc2c2c3nsnc3c3c4ccc(C(C)(C)C)cc4n(CC)c3c21
photoluminescence quantum yield (in CN(C)C=O): 0.07
photoluminescence quantum yield (in Cc1ccccc1): 0.08
photoluminescence quantum yield (in ClCCl): 0.07

SMILES: CCCCC(CC)CN1C(=O)c2cc(Oc3ccc(OC)cc3)c3c4c(Oc5ccc(C(C)(C)C)cc5)cc5c6c(cc(Oc7ccc(C(C)(C)C)cc7)c(c7c(Oc8ccc(OC)cc8)cc(c2c37)C1=O)c64)C(=O)N(c1c(C(C)C)cccc1C(C)C)C5=O (configuration not stated)
photoluminescence quantum yield (in Cc1ccccc1): 0.58

SMILES: O=Cc1ccc(-c2ccc(C3=CCC(c4ccccc4)CC3)s2)s1 (configuration not stated)
photoluminescence quantum yield (in CCO): 0.29

SMILES: COCCC1(CCOC)c2cc(-c3ccc(OC)cc3)ccc2-c2ccc(-c3ccc(OC)cc3)cc21
photoluminescence quantum yield (in C1CCCCC1): 0.61

SMILES: c1ccc2c(c1)Cc1ccccc1N2c1c2ccccc2c(N2c3ccccc3Cc3ccccc32)c2ccccc12
photoluminescence quantum yield (in Cc1ccccc1): 0.06

SMILES: COC(=O)CCC1=CC(C#Cc2ccsc2)=[N+]2C1=Cc1c(CCC(=O)OC)cc(C#Cc3ccsc3)n1[B-]2(F)F
photoluminescence quantum yield (in ClCCl): 0.39

SMILES: Cc1ccc(/C2=C3N=C(C(c4ccccc4)=C/3c3ccccc3)/C(c3ccc(C)cc3)=c3\[nH]/c(c(-c4ccccc4)c3-c3ccccc3)=C(/c3ccc(C)cc3)C3=N/C(=C(/c4ccc(C)cc4)c4[nH]c2c(-c2ccccc2)c4-c2ccccc2)C(c2ccccc2)=C3c2ccccc2)cc1
photoluminescence quantum yield (in ClCCl): 0.008

The next lines start with the values.

photoluminescence quantum yield (in ClCCl): 0.78
SMILES: c1ccc(N(c2ccccc2)c2ccc3ccc4c(N(c5ccccc5)c5ccccc5)ccc5ccc2c3c54)cc1

photoluminescence quantum yield (in CC#N): 0.56
photoluminescence quantum yield (in CO): 0.3
photoluminescence quantum yield (in ClCCl): 0.61
SMILES: Cc1cc(O)c(-c2[nH]c(=O)n3c2-c2ccccc2C3=O)cc1Cl

photoluminescence quantum yield (in ClCCl): 1
SMILES: FC(F)(F)c1ccc(/C=C/c2nc(/C=C/c3ccc(N(c4ccccc4)c4ccccc4)cc3)cc(/C=C/c3ccc(N(c4ccccc4)c4ccccc4)cc3)n2)cc1

photoluminescence quantum yield (in C1COCCO1): 0.363
SMILES: COC(=O)c1ccc(/C=C2\C=C(c3ccc(OC)c(OC)c3)NC2=O)cc1

photoluminescence quantum yield (in CC#N): 0.42
photoluminescence quantum yield (in ClCCl): 0.83
SMILES: COc1ccc(-c2cc3c(ccc(=O)n3C)s2)cc1

photoluminescence quantum yield (in ClC(Cl)Cl): 0.5
SMILES: C[N+]1=c2ccc3c(c2C(C)(C)CC1)Oc1cc2c(cc1C=3c1ccccc1C(=O)O)C(c1ccccc1C(=O)O)=c1ccc3c(c1O2)C(C)(C)CC[N+]=3C

photoluminescence quantum yield (in C1CCOC1): 0.54
photoluminescence quantum yield (in CC#N): 0.02
photoluminescence quantum yield (in CCO): 0.01
photoluminescence quantum yield (in CCOC(C)=O): 0.44
photoluminescence quantum yield (in CN(C)C=O): 0.03
photoluminescence quantum yield (in ClCCl): 0.27
photoluminescence quantum yield (in c1ccccc1): 0.97
SMILES: Cc1ccc([C@@H]2C[C@](O)(c3ccccn3)C[C@](O)(c3ccccn3)[C@H]2C(=O)c2ccc(N(c3ccccc3)c3ccccc3)cc2)cc1

photoluminescence quantum yield (in ClC(Cl)Cl): 0.12
SMILES: Cc1ccc(/C2=c3\cc/c(o3)=C(\c3ccc(C)cc3)c3ccc([nH]3)-c3ccc4n3[B-](F)(F)[N+]3=C(C=CC3=C4c3ccc[nH]3)c3ccc2[nH]3)cc1

photoluminescence quantum yield (in CO): 0.016
SMILES: Nc1ccc(C#Cc2ccc3ccc4ccc(C#Cc5ccc(NS(=O)(=O)c6ccc([N+](=O)[O-])cc6[N+](=O)[O-])cc5)c5ccc2c3c45)cc1

photoluminescence quantum yield (in ClCCl): 0.626
SMILES: CC(C)(C)c1cc(C#Cc2ccc3c(C#Cc4cc(C(C)(C)C)cc(C(C)(C)C)c4)cc4c5cc(C#Cc6cc(C(C)(C)C)cc(C(C)(C)C)c6)ccc5c(C#Cc5cc(C(C)(C)C)cc(C(C)(C)C)c5)cc4c3c2)cc(C(C)(C)C)c1

photoluminescence quantum yield (in CC#N): 0.017
SMILES: Cc1cccc2nc3[nH]c(=O)[nH]c(=O)c3nc12

photoluminescence quantum yield (in C1COCCO1): 0.57
SMILES: c1ccc(-c2nc(-c3nc(-c4ccccc4)c(-c4ccccc4)o3)oc2-c2ccccc2)cc1

photoluminescence quantum yield (in C1CCOC1): 0.21
SMILES: CCN(CC)c1ccc(-c2nc3c(nc2-c2ccc(B(c4c(C)cc(C)cc4C)c4c(C)cc(C)cc4C)cc2)c2ccccc2n3C)cc1

photoluminescence quantum yield (in C1CCOC1): 0.039
SMILES: O=Cc1ccc(C=C(c2ccccc2)c2ccccc2)cc1

photoluminescence quantum yield (in CC#N): 0.27
SMILES: Cc1ccc(-c2ccc(/C=C/c3ccc(C#N)cc3)cn2)nc1

photoluminescence quantum yield (in ClCCl): 0.13
SMILES: C(=C\c1ccncn1)/c1ccc(N2CCCCC2)cc1

photoluminescence quantum yield (in C1CCOC1): 0.003
photoluminescence quantum yield (in CC#N): 0.003
photoluminescence quantum yield (in CCO): 0.048
photoluminescence quantum yield (in CS(C)=O): 0.01
SMILES: CCOC(=O)c1ccccc1-c1c2ccc(=O)cc-2oc2cc(OC(=O)[C@H](CO[Si](C)(C)C(C)(C)C)NC(=O)OC(C)(C)C)ccc12

photoluminescence quantum yield (in CO): 0.95
photoluminescence quantum yield (in CS(C)=O): 1
photoluminescence quantum yield (in ClC(Cl)Cl): 1
photoluminescence quantum yield (in c1ccccc1): 0.84
SMILES: CCC1=C(C)C(=O)n2c1cc1c(CCC(=O)O)c(C)c(C)n1c2=O

photoluminescence quantum yield (in CCO): 0.0246
photoluminescence quantum yield (in ClCCl): 0.0632
photoluminescence quantum yield (in O): 0.02
SMILES: O=Cc1ccc(-c2ccc(O)c(-c3nc4ccccc4s3)c2)o1

photoluminescence quantum yield (in C1COCCO1): 0.19
photoluminescence quantum yield (in CC#N): 0.01
photoluminescence quantum yield (in ClCCl): 0.17
SMILES: CN(C)c1ccc(/C=C/c2nc3ccc(Br)cc3nc2-c2ccccc2)cc1

photoluminescence quantum yield (in C1CCOC1): 0.0013
SMILES: CCCCCCOc1cc(C=C2c3ccccc3-c3ccccc32)c(OCCCCCC)cc1C=C1c2ccccc2C=Cc2ccccc21

photoluminescence quantum yield (in ClCCl): 0.65
SMILES: CCCCn1c2ccc(C#N)cc2c2cc(C#N)cc(-c3ccc(N(c4ccccc4)c4ccccc4)cc3)c21

photoluminescence quantum yield (in ClC(Cl)Cl): 0.14
SMILES: CC1=CC(C)=[N+]2C1=C(c1ccc(I)cc1)c1c(C)cc(C)n1[B-]21OCCO1

photoluminescence quantum yield (in C1COCCO1): 0.19
photoluminescence quantum yield (in CCO): 0.13
photoluminescence quantum yield (in CN(C)C=O): 0.08
photoluminescence quantum yield (in ClC(Cl)Cl): 0.18
SMILES: CCCCCCCN1C(=CC2=C([O-])C(=CC3=[N+](CCCCCCC)c4ccccc4C3(C)C)C2=C(C#N)C#N)C(C)(C)c2ccccc21

photoluminescence quantum yield (in CC#N): 0.0073
photoluminescence quantum yield (in CC(C)O): 0.029
photoluminescence quantum yield (in CCCCO): 0.023
photoluminescence quantum yield (in CCCO): 0.021
photoluminescence quantum yield (in CCO): 0.02
photoluminescence quantum yield (in CO): 0.011
SMILES: COc1cccc2c1C(=O)c1ccccc1-2

photoluminescence quantum yield (in ClC(Cl)Cl): 0.09 and 0.08
SMILES: C(#Cc1ccccc1)C(C#Cc1ccccc1)=Cc1ccc(C=C(C#Cc2ccccc2)C#Cc2ccccc2)s1
